This is an account of results in ChEMBL document CHEMBL1136523, “A novel estrogen receptor ligand template” (Bioorg Med Chem Lett, 2003).

Where only a bound is given, the exact number is not on record here.

Experiment [1] concerns the target T1, Estrogen receptor (Homo sapiens, UniProt P03372).
T1 sequence (P03372 whole entry): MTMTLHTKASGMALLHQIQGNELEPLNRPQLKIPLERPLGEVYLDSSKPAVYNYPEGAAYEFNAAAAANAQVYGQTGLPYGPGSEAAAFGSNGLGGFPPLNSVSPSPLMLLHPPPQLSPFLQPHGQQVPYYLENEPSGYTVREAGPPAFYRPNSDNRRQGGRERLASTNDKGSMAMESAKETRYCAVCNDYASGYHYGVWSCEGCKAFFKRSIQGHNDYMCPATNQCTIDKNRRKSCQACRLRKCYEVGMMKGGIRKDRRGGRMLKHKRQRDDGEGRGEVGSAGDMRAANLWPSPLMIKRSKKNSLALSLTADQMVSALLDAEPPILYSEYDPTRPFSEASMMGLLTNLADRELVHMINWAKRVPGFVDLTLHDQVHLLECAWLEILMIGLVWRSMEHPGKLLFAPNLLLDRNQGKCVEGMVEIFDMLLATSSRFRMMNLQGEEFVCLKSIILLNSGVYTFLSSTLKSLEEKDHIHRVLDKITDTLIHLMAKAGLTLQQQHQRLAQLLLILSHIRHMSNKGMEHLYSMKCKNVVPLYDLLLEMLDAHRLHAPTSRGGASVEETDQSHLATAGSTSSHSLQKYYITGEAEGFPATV
Put plainly: In vitro binding affinity for estrogen receptor alpha.

For experiment [2], the target named is Estrogen receptor (Homo sapiens, UniProt Q92731+P03372). Put plainly: Percent agonistic activity for estrogen-induced pS2 expression in MCF-7 cells. The experiment is classed as functional, cell-based. To be noted: mcf7.
A further experiment deals with Estrogen receptor beta (Homo sapiens, UniProt Q92731).
Estrogen receptor beta, sequence (Q92731 whole entry): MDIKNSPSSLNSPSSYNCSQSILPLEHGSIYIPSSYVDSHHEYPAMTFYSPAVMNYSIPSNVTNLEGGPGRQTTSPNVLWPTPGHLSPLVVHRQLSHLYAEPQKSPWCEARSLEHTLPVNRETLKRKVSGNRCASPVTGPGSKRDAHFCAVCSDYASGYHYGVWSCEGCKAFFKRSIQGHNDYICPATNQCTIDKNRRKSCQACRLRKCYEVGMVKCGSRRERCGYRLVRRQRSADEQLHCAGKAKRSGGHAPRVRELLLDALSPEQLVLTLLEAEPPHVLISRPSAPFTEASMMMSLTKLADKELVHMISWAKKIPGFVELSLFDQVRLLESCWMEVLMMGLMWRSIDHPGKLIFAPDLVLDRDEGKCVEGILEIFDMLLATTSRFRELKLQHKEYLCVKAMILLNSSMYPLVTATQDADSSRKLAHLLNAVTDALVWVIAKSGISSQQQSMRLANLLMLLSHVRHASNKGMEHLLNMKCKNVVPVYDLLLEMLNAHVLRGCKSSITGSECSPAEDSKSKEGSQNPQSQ

Description for Estrogen receptor beta: In vitro binding affinity for estrogen receptor beta

`OC[C@@]12CC=C[C@@H](C1)[C@H](c1ccc(O)cc1)CC2`: the IC50 at Estrogen receptor [1] amounted to 550 nM; on Estrogen receptor beta, 75 nM. This compound also yielded an EC50 at Estrogen receptor [2] below 10 nM.

As a reminder, the IC50 is the concentration needed to halve the response being measured. By EC50 is commonly meant the concentration that produces a half-maximal response. A high value points to weaker potency.
